Test results taken from patent US12194033B2, “Glycine receptor modulators and methods of use” (University of Pittsburgh—Of the Commonwealth System of …, priority 2017, dated 2025).

What was measured:
CD1 mice = assay: Hargreaves test under CFA-induced hyperalgesic conditions in CD1 mice; assay type: in vivo; settings: for response time for paw withdrawal compared to vehicle: 0.1 mg/kg, CD1 mice, CFA-induced hyperalgesic conditions
Protocol: Under CFA-induced hyperalgesic conditions, the maximum possible effect, % MPE=(response−baseline)/(cut-off time−baseline), was measured for the application of compound 1 alone (0.05 mg/kg, blue, n=12; 0.01 mg/kg, orange, n=4), morphine alone (0.1 mg/kg, green, n=8), and compound 1 with morphine at three different dosage combinations: 0.05 mg/kg compound 1 with 0.1 mg/kg morphine (light blue, n=6), 0.01 mg/kg compound 1 with 0.1 mg/kg morphine (pink, n=10), and 0.01 mg/kg compound 1 with 0.01 mg/kg morphine (red, n=4). […] Error bars designate the standard error of the mean.
0.05 mg/kg compound 1 was tested for tolerance in CFA-treated mice (red). Under CFA-induced hyperalgesic conditions (24 hours post-application of CFA), 0.05 mg/kg compound 1 was administered to CD1 mice and responses to the Hargreaves test were measured immediately after the initial injection (application time=0) and again after a repeated dose given 1.5 hours (FIG. 7A) or 24 hours (FIG. 7B) after the effects of the first dose wore off. The black circles represent the responses of naïve mice (i.e., no administration of compound 1 or CFA), and the red circles represent the responses of mice receiving compound 1 under CFA-induced hyperalgesic conditions. […] Error bars designate the standard error of the mean (n=4).
Responses of CD1 mice to the Hargreaves test were assessed after application of 0.1 mg/kg of the indicated compounds (black) or vehicle (white) under CFA-induced hyperalgesic conditions as shown in FIGS. 8A-8H. The assessed compounds were compounds 1 (8A), 2 (8B), 3 (8C), 4 (8D), 5 (8E), 6 (8F), 7 (8G), and 8 (8H). […] Error bars designate the standard error of the mean (n≥4).
Dose response curves from the Hargreaves test in mice with a CFA-inflamed left hind paw at 1.5 and 2 hr after intraperitoneal injection of compound 1. Percent Maximum Possible Effect (% MPE) was calculated from paw withdrawal latencies.
Tolerance to compound 1 (MJPY1) and compound 3 (MJPY2) was measured by repeated dosing in the Hargreaves Test. […] Mice (n=6/group) received repeated i.p. injections of vehicle or 0.1 mg/kg compound 1 (MJPY1) or compound 3 (MJPY2) once a day for 5 days. CFA inflammation was induced on day 4, and PWL was measured 0.5 hr before and every 10 min after treatment on day 5. Data were binned to 30-min blocks (mean±SEM).

mice = assay: Two-plate thermal preference test (30° C. vs 55° C.); assay type: in vivo; settings: for percentage of inactive time on the hot plate (55° C.): CD1 mice, CFA, vs naïve
Protocol: Responses to the two-plate thermal preference test were assessed under naïve conditions and 1 hour after administration of 0.2 mg/kg compound 1, 0.1 mg/kg morphine, or 0.2 mg/kg compound 1+0.1 mg/kg morphine. Unrestrained mice were exposed to plates set to normal and hot temperatures (30° C. and 55° C., respectively). Temperature preference was measured by percentage time spent on the hot plate (55° C.) over the course of 4 minutes, where 50% indicates no preference between the two temperatures. […] Error bars designate the standard error of the mean (n≥5).
Unrestrained mice were exposed to plates set to normal and hot temperatures (30° C. and 55° C., respectively) for 10 minutes. […] Error bars designate the standard error of the mean (n=4).
The percent inactivity on the 55° C. plate (mean±SEM) is a measure of heat tolerance. Significance was assessed by one-way ANOVA with LSD post-hoc test.

[1] = 0.1 mg/kg i.p., 1 hour after injection
[2] = 0.1 mg/kg i.p., 48 hours after injection

Row | SMILES | response time for paw withdrawal compared to vehicle (CD1 mice) | further results
1 | CCNC(=O)c1ccc(CNC(=O)c2ccc3c4c(cccc24)CC3)cc1 [compound 8, N-{[4-(ethylcarbamoyl)-phenyl]methyl}-1,2-dihydroacenaphthylene-5-carboxamide] | increase in the response time | 
2 | O=C1CN(C(=O)c2ccc(CNC(=O)c3ccc4c5c(cccc35)CC4)cc2)CCN1 [compound 6, N-{[4-(3-oxopiperazine-1-carbonyl)phenyl]methyl}-1,2-dihydroacenaphthylene-5-carboxamide] | increase in the response time | 
3 | CN1CC[C@]23c4c5ccc(O)c4O[C@H]2[C@@H](O)C=C[C@H]3[C@H]1C5 [morphine, reference compound] |  | percentage time spent on the hot plate (55° C.) compared to naïve mice (mice; normal nociception, 1 hour after 0.2 mg/kg compound 1, 0.1 mg/kg morphine, or both, 4 minutes): no significant analgesic response
4 | CN(C)C(=O)c1cccc(CNC(=O)c2ccc3c4c(cccc24)CC3)c1 [compound 4, N-[[3-(dimethylcarbamoyl)-phenyl]methyl]-1,2-dihydroacenaphthylene-5-carboxamide] | increase in the response time | percentage of inactive time on the hot plate (55° C.) (mice; [1]): increase in the inactive time; percentage of inactive time on the hot plate (55° C.) (mice; [2]): no effect
5 | NC(=O)c1ccc(CNC(=O)c2ccc3c4c(cccc24)CC3)cc1 [compound 5, N-[(4-carbamoylphenyl)-methyl]-1,2-dihydroacenaphthylene-5-carboxamide] | increase in the response time | 
6 | NC(=O)CNC(=O)c1ccc(CNC(=O)c2ccc3c4c(cccc24)CC3)cc1 [compound 3, N-({4-[(carbamoylmethyl)-carbamoyl]phenyl}methyl)-1,2-dihydroacenaphthylene-5-carboxamide] | increase in the response time | percentage of inactive time on the hot plate (55° C.) (mice; [1]): significantly increased; percentage of inactive time on the hot plate (55° C.) (mice; [2]): significantly increased; analgesic action compared with morphine (percent inactivity on the 55° C. plate) (mice; 0.1 mg/kg i.p., male CD1 mice, 24 hr after CFA, 1 hr after treatment, same dose): better than morphine; tolerance after repeated dosing (PWL) (CD1 mice; 0.1 mg/kg i.p. once a day for 5 days, CFA on day 4): negligible tolerance
7 | O=C(NCc1ccc(C(=O)N2CCCCC2)cc1)c1ccc2c3c(cccc13)CC2 [compound 2, N-{[4-(piperidine-1-carbonyl)phenyl]methyl}-1,2-dihydroacenaphthylene-5-carboxamide] | increase in the response time | 
8 | CCN(Cc1ccc(C(=O)N(C)C)cc1)C(=O)c1ccc2c3c(cccc13)CC2 [compound 7, N-{[4-(dimethylcarbamoyl)-phenyl]methyl}-N-ethyl-1,2-dihydroacenaphthylene-5-carboxamide] | increase in the response time | 
